One series has as its system CAL-27. Put plainly: CellTiterGlo cell viability assay, CAL-27. The format is cell-based. The note with it: Homo sapiens; CAL-27, head & neck squamous cell carcinoma, p53 H193L, 72 hours. On the procedure:
• 1) Cell lines: HT29, SW480, DLD-1, HCT116, and p53-null HCT116 cells, H1975, MDA-MD-231, U251, FaDu, CAL-27, PANC-1, Aspc-1, and MRC5 were obtained from the ATCC and cultured as recommended. Cells were regularly authenticated by bioluminescence, growth, and morphologic observation. The cells were routinely examined for Mycoplasma and all cell lines underwent STR authentication. • 2) Western blotting: After treatment, protein lysates were collected for Western blot analysis. 15 μg of protein was used for SDS-PAGE. After primary and secondary antibody incubations, the signal was detected by chemiluminescent detection kit, imaged by Syngene (Imgen Technologies). […] The cell viability was assessed by CellTiterGlo bioluminescent cell proliferation assay (Promega), following the manufacturer's protocol. Bioluminescence imaging was measured using the IVIS imager. Percentage of cell viability (mean±SEM) at each dose was calculated against the respective DMSO control. The IC50 values were determined from the sigmoidal dose-response curves using GraphPad Prims4. • 4) Caspase activity assay: Cells were seeded in 96-well plate (1×10^4 cells/well). […] The caspase 3/7 activity was assessed by Caspase-Glo® 3/7 Assay kit (Promega), following the manufacturer's protocol. Bioluminescence imaging was measured using the IVIS imager. […]
In general terms: ATP-based viability assays read luminescence as a measure of living cells.

In series [1] the test system is γ-H2AX in HT29 and SW480 cells. Nature of the series: γ-H2AX DNA damage marker, western blot and immunofluorescence staining. The series is classed as cell-based, human. On the procedure:
After treatment, protein lysates were collected for Western blot analysis. A total of […] of protein was used for SDS-PAGE. After primary and secondary antibody incubations, the signal was detected by a chemiluminescence detection kit, imaged by Syngene (Imgen Technologies). Antibodies for PUMA (for IHC), p53 (Santa Cruz Biotechnology), caspase 8, cleaved caspase 8, caspase 9, caspase 3, cleavage PARP, eIF2α, p-eIF2α (Ser51), CHOP, ATF4, DR5, FOXO3a, p-FOXO3a (Ser253), NF-κB p65, p-NF-κB p65 (Ser536), c-Jun, p-c-Jun (Ser63), JNK, p-JNK (Thr183/Tyr185), PUMA (for WB), c-Myc, phosphor-S62-cMyc (Cell Signaling Technology), Noxa, p21 (Calbiochem), p73 (Bethyl laboratories Inc), Ran (BD Biosciences), […] (Sigma).
A total of 5×10^4 cells were seeded in each well of 8-well chamber slides. After treatment, cells were fixed and permeabilized by methanol:acetone (1:1) for 20 minutes at −20° C. Fixed cells were blocked by 2% BSA for 1 hour, followed by primary antibody incubation for 1 hours and Cy3-conjuated secondary antibody incubation for 1 hour at room temperature. After washing, cells were stained with DAPI for 10 minutes at room temperature. Cells were mounted, and examined by fluorescence microscopy.
DNA damage induces the p53 pathway and leads to cell apoptosis. To study whether the p53 pathway restoration by compound PG3-Oc is due to DNA damage, the uptake and localization of PG3-Oc was investigated in cells. PG3-Oc and prodigiosin are red fluorescent compounds, and their localization in live cells can be monitored by fluorescence microscopy. PG3-Oc and prodigiosin rapidly entered cells within 2 hours of incubation and remained in the cytosol at the 8-hour time point in HT29 and SW480 cells (FIG. 46). […] Baldino, et al. reported that prodigiosin localized to the cytoplasm, but not within the nucleus, and no γ-H2AX signal was detected in A549 cancer cells (Baldino et al., Bioorg Med Chem Lett, 2006, 16, 701-704). […]

Broadly, the IC50 is the concentration needed to halve the response being measured. Regarding `CCCCCCCCOC(=O)CCc1c(C)[nH]c(/C=C2\N=C(c3ccc[nH]3)C=C2OC)c1C` [PG3-Oc, Octyl (Z)-3-(5-((4′-methoxy-1H,5′H-[2,2′-bipyrrol]-5′-ylidene)methyl)-2,4-dimethyl-1H-pyrrol-3-yl)propanoate], the concentration for half-maximal inhibition (IC50) in the series on CAL-27 came out at 33.9 nM. Besides, the “induction of 65-H2AX (DNA damage marker) / foci formation” value in series [1] is listed as “did not induce”.

(Values after patent US12344599B2, “Prodigiosin analogs and methods of use” (Institute For Cancer Research, priority 2016, dated 2025).)
